{"source": "patent US7323479B2", "about": "“Methods for treatment and management of brain cancer using 1-oxo-2-(2,6-dioxopiperidin-3-yl)-4-methylisoindoline” (Celgene Corporation, priority 2002, dated 2008)", "key": {"TNF-α, IL-1β, and IL-6": {"system": "TNF-α, IL-1β, and IL-6", "assay": "LPS-stimulated production of pro-inflammatory cytokines by PBMC", "format": "cell-based"}, "[1]": {"assay": "Phase 1 studies of Revimid in refractory or relapsed multiple myeloma: dose limiting toxicity", "format": "in vivo", "protocol": "(§1) Patients were evaluated for adverse events at each visit and the severity of these events was graded according to the National Cancer Institute (NCI) Common Toxicity Criteria. Patients were discontinued if they experienced DLT (Grade 3 or greater non-hematological, or Grade 4 hematological toxicity)."}, "[2]": {"assay": "Phase 1 study of Revimid in patients with solid tumors: dose limiting toxicity", "format": "in vivo", "conditions": "initial group of 20 patients, 5 escalated to 50 mg/day over 4 weeks", "protocol": "Patients who, experienced clinical benefit were permitted to continue on treatment as Named Patients.\nThe study design dictates that at least 3 patients must be enrolled at a dose level and have completed 28 days of treatment prior to enrollment of patients at the next higher dose level. Patients in the first cohort began dosing at 5 mg/day of 3-(4-amino-1′-oxo-1,3-dihydro-isoindol-2-yl)-piperidine-2,6-dione. […]\nIf, at any given dose level in either study, one out of three patients experiences toxicity, three additional patients must be treated at that particular dose. If, however, two out of six patients experience DLT, the MTD is judged to have been exceeded. No further dose escalations are to occur and additional patients are to be enrolled at the previous dose level."}, "[3]": {"assay": "Phase 1 studies of Revimid in refractory or relapsed multiple myeloma: pharmacokinetics", "format": "in vivo", "protocol": "as §1\nBlood and urine samples were collected for analysis of pharmacokinetic parameters on Days 1 and 28. Blood samples were collected according to the following sampling schedule: pre-dose, 0.25, 0.5, 0.75, 1, 1.5, 2, 2.5, 3, 4, 6, 8, 10, 12, 18, and 24 hours post-dose. In addition, a blood sample was collected at each weekly clinic visit for 3-(4-amino-1-oxo-1,3-dihydro-isoindol-2-yl)-piperidine-2,6-dione determination. Total urine was collected and pooled according to the following time intervals post-dose: 0 to 4, 4 to 8, 8 to 12, and 12 to 24 hours. […] Bone marrow aspirations and/or tissue biopsy are also performed at Months 3, 6 and 12 if a patient's paraprotein serum concentration or 24-hour urine protein excretion declined to the next lower level, based on best response criteria."}, "[4]": {"assay": "Cardiovascular and respiratory function in anesthetized dogs", "format": "in vivo, Beagle dogs", "source_text": "Two groups of Beagle dogs (2/sex/group) are used."}, "IL-2 and IFN-γ": {"system": "IL-2 and IFN-γ", "assay": "Augmentation of IL-2 and IFN-γ production following TCR activation of PBMC (IL-2) or T-cells (IFN-γ)", "format": "cell-based"}, "IL-10": {"system": "IL-10", "assay": "LPS-stimulated production of anti-inflammatory cytokine IL-10 by PBMC", "format": "cell-based"}, "metastatic melanoma": {"system": "metastatic melanoma", "assay": "Treatment of patients with metastatic melanoma", "format": "in vivo, human", "protocol": "The dose was then increased every seven days to 10 mg/day, 25 mg/day, and 50 mg/day, respectively, for a total of four weeks on therapy."}, "[5]": {"assay": "Pharmacokinetics of Actimid in relapsed/refractory multiple myeloma patients", "format": "in vivo, human", "conditions": "for AUC: AUC(0-τ); for Vd/F: Vz/f; for half-life: t½", "protocol": "4-(Amino)-2-(2,6-dioxo(3-piperidyl))-isoindoline-1,3-dione (Actimid™) was administered to patients with relapsed/refractory multiple myeloma. The study was conducted in compliance with Good Clinical Practices. Patients were at least 18 years old, had been diagnosed with multiple myeloma (with paraprotein in serum and/or urine), and were considered refractory to treatment after at least two cycles of treatment, or have relapsed after two cycles of treatment.\n4-(Amino)-2-(2,6-dioxo(3-piperidyl))-isoindoline-1,3-dione is administered to patients at doses of 1, 2, 5, or 10 mg/day for up to four weeks; at each dose level, three patients are initially enrolled. Dosing occurs at approximately the same time each morning; all doses are administered in the fasted state (no eating for at least two hours prior to dosing and two hours after dosing). 4-(Amino)-2-(2,6-dioxo(3-piperidyl))-isoindoline-1,3-dione doses are administered in an ascending fashion such that patients in the first cohort receive the lowest dose of 4-(amino)-2-(2,6-dioxo(3-piperidyl))-isoindoline-1,3-dione (1 mg/day) and escalation to the next higher dose level occurs only following the establishment of safety and tolerability at the current dose. If one out of three patients at any dose level experience dose limiting toxicity (DLT), three additional patients are enrolled at that dose. If none of the three additional patients experience DLT, escalation to the next dose level occurs; dose escalations continue in a similar fashion until the MTD is established or the maximum daily dose (10 mg/day) is attained. However, if one of the three additional patients enrolled experiences DLT, the MTD has been reached. If two or more of the three additional patients enrolled experience DLT, the MTD is judged to have been exceeded and three additional patients are enrolled at the preceding dose level to confirm the MTD. Once the MTD has been identified, four additional patients are enrolled at that dose level so that a total of 10 patients is treated at the MTD.\nBlood sampling for analysis of pharmacokinetic parameters is performed on Days 1 and 28 according to the following sampling schedule: pre-dose, 0.25, 0.5, 0.75, 1, 1.5, 2, 2.5, 3, 4, 6, 8, 10, 12, 18, and 24 hours post-dose. An additional blood sample is collected at each weekly visit for the determination of 4-(amino)-2-(2,6-dioxo(3-piperidyl))-isoindoline-1,3-dione levels. Total urine collections are also made with urine pooled according to the following time intervals post-dose: 0 to 4, 4 to 8, 8 to 12, and 12 to 24 hours. Safety assessments are made by monitoring adverse events, vital signs, ECGs, clinical laboratory evaluations (blood chemistry, hematology, lymphocyte phenotyping, and urinalysis), and physical examination at specific times during the study."}, "[6]": {"conditions": "multiple myeloma patients, preliminary"}}}
{"compound": "Nc1cccc2c1CN(C1CCC(=O)NC1=O)C2=O", "note": "(stereo not drawn) [Revimid, 3-(4-amino-1-oxo-1,3-dihydro-isoindol-2-yl)-piperidine-2,6-dione]", "values": [{"measurement": "effect on LPS-stimulated production of TNF-α, IL-1β, and IL-6", "setting": "TNF-α, IL-1β, and IL-6", "result": "dose-dependent inhibition"}, {"measurement": "dose limiting toxicity (DLT)", "setting": "[1]; first cohort of 3 patients, 5 mg/day, 28 days", "result": "without any dose limiting toxicity"}, {"measurement": "tolerability", "setting": "[1]; second cohort of 3 patients, 10 mg/day", "result": "tolerated treatment well"}, {"measurement": "DLTs reported", "setting": "[2]", "result": "No DLTs"}, {"measurement": "half-live in patients, mean", "setting": "[3]; human, in vivo", "result": 8, "unit": "h"}, {"measurement": "half-live in patients, ranging up to", "setting": "[3]; human, in vivo", "result": "up to 17 hours"}, {"measurement": "accumulation with multiple dosing", "setting": "[3]; in vivo", "result": "no evidence of accumulation"}, {"measurement": "shape of concentration profile", "setting": "[3]; in vivo", "result": "double peaks were observed"}, {"measurement": "clearance compared to healthy volunteers", "setting": "[3]; [6]", "result": "lower"}, {"measurement": "exposure (Cmax and AUC) compared to healthy male volunteers", "setting": "[3]; [6]", "result": "slightly higher"}, {"measurement": "cardiovascular and respiratory changes compared to the vehicle control group", "setting": "[4]; anesthetized dogs, 2, 10, and 20 mg/kg, infusion through the jugular vein, all doses", "result": "minimal"}, {"measurement": "deviations in femoral blood flow, respiratory parameters, and Qtc interval", "setting": "[4]; common to both the control and treated groups", "result": "not considered treatment-related"}, {"measurement": "duration of the arterial blood pressure effect", "setting": "[4]; low dose", "result": "approximately 15 minutes"}, {"measurement": "arterial blood pressure after small increase", "setting": "[4]; low dose, increase from 94 mmHg, not seen at higher doses", "result": 101, "unit": "mmHg"}, {"measurement": "times more potent than thalidomide in augmenting the production of IL-2 and IFN-γ", "setting": "IL-2 and IFN-γ", "result": "50-100 times"}, {"measurement": "effect on production of IL-10", "setting": "IL-10", "result": "increased production"}, {"measurement": "patients showing disease stabilization or a partial response", "setting": "metastatic melanoma; first four weeks of treatment, 5 escalated to 50 mg/day", "result": "Five of the 13"}, {"measurement": "duration of response", "setting": "metastatic melanoma; metastatic melanoma patients", "result": "approximately six months"}, {"measurement": "tumor response seen in cutaneous and subcutaneous lesions", "setting": "metastatic melanoma; metastatic melanoma patients", "result": "five"}, {"measurement": "tumor response seen in liver", "setting": "metastatic melanoma; metastatic melanoma patients", "result": "one"}, {"measurement": "tumor response seen in lymph nodes", "setting": "metastatic melanoma; metastatic melanoma patients", "result": "two"}]}
{"compound": "Nc1cccc2c1C(=O)N(C1CCC(=O)NC1=O)C2=O", "note": "(stereo not drawn) [Actimid, 4-(Amino)-2-(2,6-dioxo(3-piperidyl))-isoindoline-1,3-dione]", "values": [{"measurement": "increase in AUC(0-τ) with 5-fold increase in dose", "setting": "[5]; Day 1", "result": 3.6, "unit": "fold"}, {"measurement": "increase in Cmax with five-fold higher dose", "setting": "[5]; Day 1", "result": 3.2, "unit": "fold"}, {"measurement": "increase in AUC(0-τ) with 5-fold increase in dose", "setting": "[5]; Week 4", "result": 2.3, "unit": "fold"}, {"measurement": "increase in Cmax with five-fold higher dose", "setting": "[5]; Week 4", "result": 2.2, "unit": "fold"}, {"measurement": "decline of plasma concentrations after reaching Cmax", "setting": "[5]; human, in vivo", "result": "declined in a monophasic manner"}, {"measurement": "increase in AUC(0-τ) and Cmax values with increasing dose", "setting": "[5]; human, in vivo", "result": "almost a dose proportional increase"}, {"measurement": "AUC(0-inf)", "setting": "[5]; human, in vivo, 1 mg", "result": 153, "unit": "ng·h/mL"}, {"measurement": "AUC", "setting": "[5]; human, in vivo, 1 mg", "result": 134, "unit": "ng·h/mL"}, {"measurement": "Cmax", "setting": "[5]; human, in vivo, 1 mg", "result": 15, "unit": "ng/mL"}, {"measurement": "Vd/F", "setting": "[5]; human, in vivo, 1 mg", "result": 69.5, "unit": "L"}, {"measurement": "Tmax", "setting": "[5]; human, in vivo, 1 mg, tmax", "result": 3.3, "unit": "h"}, {"measurement": "half-life", "setting": "[5]; human, in vivo, 1 mg", "result": 438, "unit": "min"}, {"measurement": "AUC(0-inf)", "setting": "[5]; human, in vivo, 2 mg", "result": 279, "unit": "ng·h/mL"}, {"measurement": "AUC", "setting": "[5]; human, in vivo, 2 mg", "result": 250, "unit": "ng·h/mL"}, {"measurement": "Cmax", "setting": "[5]; human, in vivo, 2 mg", "result": 24.4, "unit": "ng/mL"}, {"measurement": "Vd/F", "setting": "[5]; human, in vivo, 2 mg", "result": 65.3, "unit": "L"}, {"measurement": "Tmax", "setting": "[5]; human, in vivo, 2 mg, tmax", "result": 2.7, "unit": "h"}, {"measurement": "half-life", "setting": "[5]; human, in vivo, 2 mg", "result": 378, "unit": "min"}, {"measurement": "AUC(0-inf)", "setting": "[5]; human, in vivo, 5 mg", "result": 593, "unit": "ng·h/mL"}, {"measurement": "AUC", "setting": "[5]; human, in vivo, 5 mg", "result": 521, "unit": "ng·h/mL"}, {"measurement": "Cmax", "setting": "[5]; human, in vivo, 5 mg", "result": 48.6, "unit": "ng/mL"}, {"measurement": "Vd/F", "setting": "[5]; human, in vivo, 5 mg", "result": 87.2, "unit": "L"}, {"measurement": "Tmax", "setting": "[5]; human, in vivo, 5 mg, tmax", "result": 2.3, "unit": "h"}, {"measurement": "half-life", "setting": "[5]; human, in vivo, 5 mg", "result": 390, "unit": "min"}, {"measurement": "Tmax", "setting": "[5]; human, in vivo, median Tmax", "result": "2.5 to 2.8", "unit": "h"}, {"measurement": "Tmax", "setting": "[5]; human, in vivo, po, tmax", "result": 3.6, "unit": "h"}, {"measurement": "half-life", "setting": "[5]; human, in vivo, po", "result": 372, "unit": "min"}]}
